Laboratory results from patent US8765802B2, “Kinase inhibitors, compositions thereof, and methods of use therewith” (Provid Pharmaceuticals, Inc., priority 2007, dated 2014).

target: T1, Chk2 (Homo sapiens, UniProt O96017); test: Chk2 inhibitor IMAP assay (high-throughput Chk2 screening assay); assay type: biochemical; conditions: IMAP fluorescence polarization assay, 10 μM ATP
T1 construct: made in house; host or cells: E. coli BL21 Star (Invitrogen)
Method: Compounds set forth in Table 1 were tested in the Chk2 inhibitor IMAP assay described herein in Example 6.84. […] The letters given for the Chk2 EC50 values in Table 1 represent the following ranges: A=<100 nM; B=100-300 nM; C=300-1000 nM; D=1-10 μM; and E>10 μM.
Compounds can be screened for Chk2 inhibitory activity using a high-throughput screening assay based in the immobilized metal ion affinity-based fluorescence polarization (IMAP) assay developed by Molecular Devices. This assay is based on the high affinity binding of phosphate by immobilized metal (MIII) coordination complexes on nanoparticles. A fluorescein-labeled peptide substrate is used as the substrate for the kinase activity of Chk2 in the assay. The IMAP binding reagent stops the kinase reaction. The binding of the binding reagent results in a change in the rate of molecular motion of the peptide and causes an increase in the fluorescence polarization value observed for the fluorescein label attached to the end of the peptide. Thus, inhibition of Chk2 would result in a decrease in fluorescence polarization compared to control.
A specific protocol for screening Compounds for Chk2 inhibitory activity follows.
A Compound is supplied at 1 mM in 0.5 μl DMSO on 384 well plates (such as Greiner or Corning). After thawing, 5 μl DMSO is added to the drug plate. The drug plate is then incubated for 10 minutes to solubilize the Compound. An additional 19.5 μl of reaction buffer (10× stock prepared using 100 mM Tris-HCl, 100 mM MgCl2, 1% BSA, pH 7.2, stored at 4° C.)+1 mM DDT is added to bring the Compound to 4× final concentration. A positive control is also prepared at 4× final concentration. The following control wells are used: less enzyme control (all reagents except enzyme; 5 μl/well), less Compound control (all reagents except Compound; 5 μl/well), positive control (all reagents plus staurosporine at a final concentration of 5 μM; 5 μl/well).
Reagents are then added in the following order to give the following final concentration: 2.5 μl ATP/Chk2tide (Molecular Devices) (10 μM/100 nM final concentration), 1.25 μl Compound (5 μM final concentration inf 5.5% DMSO), and 1.25 μl Chk2 (1:500, 2.4 μg/mL final concentration).
Plates are covered and incubated at room temperature for 60 minutes.
IMAP binding reagent (Molecular Devices) is diluted 1:400 into binding buffer (Molecular Devices). 15 μl of this solution is then added to all wells and the plates are covered and incubated for 30 minutes.
Plates are read using a Tecan Ultra under the fluorescence polarization mode. Gain is set to the less enzyme and less Compound wells for each plate. Excitation 485 nm, emmission 535 nm, Z position 12519 and flashes 5 are used as settings. Raw data from the Tecan reader is imported into an access database for analysis.

T1 sequence (O96017 whole entry): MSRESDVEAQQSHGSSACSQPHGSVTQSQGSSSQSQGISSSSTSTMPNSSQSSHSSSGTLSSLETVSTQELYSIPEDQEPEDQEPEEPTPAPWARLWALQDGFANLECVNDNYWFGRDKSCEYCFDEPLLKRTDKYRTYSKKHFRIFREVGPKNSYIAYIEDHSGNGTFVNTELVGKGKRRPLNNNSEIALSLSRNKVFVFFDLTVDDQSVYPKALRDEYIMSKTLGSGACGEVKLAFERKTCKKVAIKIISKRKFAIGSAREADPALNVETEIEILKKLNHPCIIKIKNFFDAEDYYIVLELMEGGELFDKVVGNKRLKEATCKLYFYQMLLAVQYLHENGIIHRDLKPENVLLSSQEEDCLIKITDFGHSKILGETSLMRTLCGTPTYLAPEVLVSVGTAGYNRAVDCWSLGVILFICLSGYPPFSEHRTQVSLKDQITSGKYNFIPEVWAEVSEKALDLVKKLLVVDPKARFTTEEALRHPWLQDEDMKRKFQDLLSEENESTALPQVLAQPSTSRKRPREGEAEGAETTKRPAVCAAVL

| SMILES | EC50 |
| --- | --- |
| CSC(=N)N/N=C(\C)c1ccc(NC(=O)Nc2ccc(C(C)=O)cc2)cc1 [Compound 64] | > 10000 nM |
| C/C(=N\N/C(=N\N)NN)c1ccc(NC(=O)Nc2ccc(/C(C)=N/N/C(=N\N)NN)cc2)cc1 [Compound 65] | 100 to 300 nM |
| CC(=O)c1ccc(NC(=O)Nc2ccc(/C(C)=N/NC3=NCCN3)cc2)cc1 [Compound 66] | 100 to 300 nM |
| C/C(=N\NC(=N)N)c1ccc(NC(=O)c2cc3cc(Cl)ccc3[nH]2)cc1 [Compound 67] | 1000 to 10000 nM |
| C/C(=N\NC(=N)N)c1ccc(NC(=O)c2cc3cccc(/C(C)=N/NC(=N)N)c3[nH]2)cc1 [Compound 68] | 1000 to 10000 nM |
| COc1cc([N+](=O)[O-])c2[nH]c(C(=O)Nc3ccc(/C(C)=N/NC(=N)N)cc3)cc2c1 [Compound 69] | < 100 nM |
| CC(=O)c1ccc2[nH]c(C(=O)Nc3ccc(/C(C)=N/NC(=N)N)cc3)cc2c1 [Compound 71] | < 100 nM |
| CC(=O)c1ccc(NC(=O)c2cc3cc(/C(C)=N/NC(=N)N)ccc3[nH]2)cc1 [Compound 72] | 300 to 1000 nM |
| COc1cc2cc(C(=O)Nc3ccc(/C(C)=N/NC(=N)N)cc3)[nH]c2cc1OC [Compound 73] | 300 to 1000 nM |
| COc1ccc2cc(C(=O)Nc3ccc(/C(C)=N/NC(=N)N)cc3)[nH]c2c1 [Compound 74] | 300 to 1000 nM |
| COc1cccc2cc(C(=O)Nc3ccc(C(C)=NNC(=N)N)cc3)[nH]c12 [Compound 75] | 1000 to 10000 nM |
| CC(=O)Nc1cccc2cc(C(=O)Nc3ccc(/C(C)=N/NC(=N)N)cc3)[nH]c12 [Compound 76] | 300 to 1000 nM |
| C/C(=N\NC(=N)N)c1ccc(NC(=O)c2cc3cccc(N)c3[nH]2)cc1 [Compound 77] | 1000 to 10000 nM |
| COc1ccc2oc(C(=O)Nc3ccc(/C(C)=N/NC(=N)N)cc3)cc2c1 [Compound 78] | 100 to 300 nM |
| C/C(=N\NC(=N)N)c1ccc(NC(=O)c2ccc3c(c2)CCC/C3=N\NC(=N)N)cc1 [Compound 79] | 1000 to 10000 nM |
| C/C(=N\NC(=N)N)c1ccc2[nH]c(C(=O)Nc3ccc4[nH]ccc4c3)cc2c1 [Compound 80] | 300 to 1000 nM |
| C/C(=N\NC(=N)N)c1ccc2[nH]c(C(=O)Nc3ccc4cc[nH]c4c3)cc2c1 [Compound 81] | 300 to 1000 nM |
| COc1ccc2nc(C(=O)Nc3ccc(/C(C)=N/NC(=N)N)cc3)sc2c1 [Compound 82] | 1000 to 10000 nM |
| C/C(=N\NC(=N)N)c1ccc(NC(=O)c2cc3ccc(N)cc3[nH]2)cc1 [Compound 83] | 1000 to 10000 nM |
| C/C(=N\NC(=N)N)c1ccc(NC(=O)c2cc3cccc([N+](=O)[O-])c3[nH]2)cc1C [Compound 84] | 1000 to 10000 nM |

| SMILES | EC50 |
| --- | --- |
| C/C(=N\NC(=N)N)c1ccc(NC(=O)c2cc3cccc(C(F)(F)F)c3[nH]2)cc1 [Compound 85] | > 10000 nM |
| N=C(N)N/N=C1\CCCc2cc(NC(=O)c3cc4cccc([N+](=O)[O-])c4[nH]3)ccc21 [Compound 86] | < 100 nM |
| C/C(=N\NC(=N)N)c1ccc(NC(=O)c2cc3cc(F)ccc3[nH]2)cc1 [Compound 87] | 1000 to 10000 nM |
| CC(=O)Nc1ccc2cc(C(=O)Nc3ccc(/C(C)=N/NC(=N)N)cc3)[nH]c2c1 [Compound 88] | 300 to 1000 nM |
| C/C(=N\NC(=N)N)c1ccc(NC(=O)c2cc3ccc(S(C)(=O)=O)cc3[nH]2)cc1 [Compound 89] | 300 to 1000 nM |
| CCCOc1ccc2cc(C(=O)Nc3ccc(/C(C)=N/NC(=N)N)cc3)[nH]c2c1 [Compound 90] | 1000 to 10000 nM |
| CSc1ccc2cc(C(=O)Nc3ccc(/C(C)=N/NC(=N)N)cc3)[nH]c2c1 [Compound 91] | 300 to 1000 nM |
| CCNc1ccc2cc(C(=O)Nc3ccc(/C(C)=N/NC(=N)N)cc3)[nH]c2c1 [Compound 92] | 300 to 1000 nM |
| C/C(=N\NC(=N)N)c1ccc(NC(=O)c2cc3ccc(C)cc3[nH]2)cc1 [Compound 93] | 300 to 1000 nM |
| C/C(=N\NC(=N)N)c1ccc(NC(=O)c2cc3ccc(Cl)cc3[nH]2)cc1 [Compound 94] | 300 to 1000 nM |
| C/C(=N\NC(=N)N)c1ccc(NC(=O)c2cc3cccc(NS(N)(=O)=O)c3[nH]2)cc1 [Compound 95] | 1000 to 10000 nM |
| N=C(N)N/N=C1\CCc2cc(NC(=O)c3cc4cccc([N+](=O)[O-])c4[nH]3)ccc21 [Compound 96] | 1000 to 10000 nM |
| C/C(=N\NC(=N)N)c1ccc(NC(=O)c2cc3c(C)cccc3[nH]2)cc1 [Compound 97] | 1000 to 10000 nM |
| COc1cc2cc(C(=O)Nc3ccc(/C(C)=N/NC(=N)N)cc3)[nH]c2cc1NC(C)=O [Compound 98] | 1000 to 10000 nM |
| COc1cc2cc(C(=O)Nc3ccc(/C(C)=N/NC(=N)N)cc3)[nH]c2cc1N [Compound 99] | 300 to 1000 nM |
| C/C(=N\NC(=N)N)c1ccc(NC(=O)c2nc3ccccc3[nH]2)cc1 [Compound 100] | > 10000 nM |
| C/C(=N\NC(=N)N)c1ccc2[nH]c(C(=O)Nc3ccc4ncccc4c3)cc2c1 [Compound 101] | < 100 nM |
| C/C(=N\NC(=N)N)c1ccc2[nH]c(C(=O)Nc3cc(C)ccn3)cc2c1 [Compound 102] | 1000 to 10000 nM |
| C/C(=N\NC(=N)N)c1ccc2[nH]c(C(=O)Nc3ccc(C)cn3)cc2c1 [Compound 103] | 1000 to 10000 nM |
| C/C(=N\NC(=N)N)c1ccc2[nH]c(C(=O)Nc3ccccn3)cc2c1 [Compound 104] | > 10000 nM |

| SMILES | EC50 |
| --- | --- |
| COc1ccc2[nH]c(C(=O)Nc3ccc4c(c3)CCC/C4=N\NC(=N)N)cc2c1 [Compound 105] | 300 to 1000 nM |
| C/C(=N\NC(=N)N)c1ccc(NC(=O)c2cn3ccccc3n2)cc1 [Compound 106] | 1000 to 10000 nM |
| C/C(=N\NC(=N)N)c1ccc(NC(=O)c2cc3c(ccc4ccccc43)[nH]2)cc1 [Compound 107] | 1000 to 10000 nM |
| C/C(=N\NC(=N)N)c1ccc2[nH]c(C(=O)Nc3cccc4[nH]ccc34)cc2c1 [Compound 108] | 1000 to 10000 nM |
| C/C(=N\NC(=N)N)c1ccc2[nH]c(C(=O)Nc3ccc4[nH]c(C)cc4c3)cc2c1 [Compound 109] | 300 to 1000 nM |
| COc1ccc2[nH]c(C(=O)Nc3ccc4c(c3)CC/C4=N\NC(=N)N)cc2c1 [Compound 110] | > 10000 nM |
| C/C(=N\NC(=N)N)c1ccc2[nH]c(C(=O)Nc3cccc(N)c3)cc2c1 [Compound 111] | 300 to 1000 nM |
| C/C(=N\NC(=N)N)c1ccc2[nH]c(C(=O)Nc3ccc(N)cc3)cc2c1 [Compound 114] | 1000 to 10000 nM |
| C/C(=N\NC(=N)N)c1ccc2[nH]c(C(=O)Nc3ccc(C(N)=O)cc3)cc2c1 [Compound 115] | 100 to 300 nM |
| CC(=NNC(N)=NO)c1ccc(NC(=O)Nc2ccc(C(C)=NNC(N)=NO)cc2)cc1 [Compound 116] | < 100 nM |
| COc1ccc2[nH]c(C(=O)Nc3ccc(C(C)=NNC(N)=NO)cc3)cc2c1 [Compound 117] | < 100 nM |
| CC(=NNC(N)=NO)c1ccc(NC(=O)c2cc3cccc([N+](=O)[O-])c3[nH]2)cc1 [Compound 118] | < 100 nM |
| C/C(=N\NC(=N)N)c1ccc2[nH]c(C(=O)Nc3ccc4nc[nH]c4c3)cc2c1 [Compound 121] | < 100 nM |
| C/C(=N\NC(=N)N)c1ccc2[nH]c(C(=O)Nc3ccc4cnccc4n3)cc2c1 [Compound 122] | > 10000 nM |
| C/C(=N\NC(=N)N)c1ccc2[nH]c(C(=O)Nc3ccc4nc(C)ccc4c3)cc2c1 [Compound 125] | 100 to 300 nM |
| C/C(=N\NC(=N)N)c1ccc2[nH]c(C(=O)Nc3ccc4cnccc4c3)cc2c1 [Compound 126] | < 100 nM |
| C/C(=N/NC(=N)N)c1ccc2[nH]c(C(=O)Nc3ccc(-n4ccnc4)cc3)cc2c1 [Compound 127] | 100 to 300 nM |
| C/C(=N/N/C(N)=N\O)c1ccc2[nH]c(C(=O)Nc3ccc(N4CCCCC4)cc3)cc2c1 [Compound 128] | 100 to 300 nM |
| C/C(=N\N/C(N)=N/O)c1ccc(NC(=O)c2cc3cc(C(N)=O)ccc3[nH]2)cc1 [Compound 129] | 300 to 1000 nM |
| C/C(=N\NC(=N)N)c1ccc(NC(=O)c2cc3cc(C(CC(C)C)=NNC(=N)N)ccc3[nH]2)cc1 [Compound 130] | < 100 nM |
